Laboratory results reported in patent US10654834B2 (Venenum Biodesign, LLC, priority 2016, dated 2020).
Like-named read-outs stand apart in the source and are kept apart here. Blank lines part the entries; values can stand above or below the compound they belong to.

Columns and labels:
human TGR5 receptor = molecular target: T1, human TGR5 receptor (Homo sapiens, UniProt Q8TDU6); assay: Human TGR5 cAMP production assay (hTGR5-CHO cells, DiscoveRx cAMP XS+ kit); format: cell-based; details: luminescent cAMP assay, read-out: Human TGR5 Lum. cAMP Activity (EC50)
T1 construct: host or cells: CHO-K1 (hTGR5-CHO)
T1 sequence (Q8TDU6 1-330): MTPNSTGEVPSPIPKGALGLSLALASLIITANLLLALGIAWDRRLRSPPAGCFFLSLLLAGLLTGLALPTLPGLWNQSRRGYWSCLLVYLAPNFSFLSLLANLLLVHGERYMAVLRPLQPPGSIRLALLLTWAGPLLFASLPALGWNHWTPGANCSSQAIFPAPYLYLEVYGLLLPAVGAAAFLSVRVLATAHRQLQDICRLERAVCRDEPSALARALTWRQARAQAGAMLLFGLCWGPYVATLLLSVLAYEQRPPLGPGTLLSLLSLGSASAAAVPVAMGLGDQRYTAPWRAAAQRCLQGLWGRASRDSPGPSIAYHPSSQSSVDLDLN
Outline: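 EC50 values come from luminescent enzyme-complementation cAMP detection, read after overnight incubation. Beforehand, hTGR5-expressing CHO-K1 cells with IBMX and anti-cAMP antibody were exposed 1 h at room temperature to serially diluted (half-log) compounds.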

[1] = Pharmacokinetic profile in mice after oral gavage; format: in vivo, mouse; design: unit: ng/mL; details: fasted male Hilltop mice, 10 mg/kg oral gavage, plasma
Protocol: Pharmacokinetic Profile in Mice
In this series of studies, the pharmacokinetic profile characteristics of compounds of the present invention were evaluated. The plasma concentration levels of the compounds were monitored in the blood stream (i.e., plasma) after oral gavage using Cmax, and area under the curve (AUC).
8 week old male Hilltop mice were fasted overnight. Animals were randomized into groups (n=9) by body weight. Mice were dosed with 10 mg/kg compound (in 20% PEG400/80% 0.5% carboxymethylcellulose (medium viscosity)+0.25% Tween-80) at a volume of […] through oral gavage. Blood was collected via orbital bleeding at 0, 0.25, 0.5, 1, 2, and 4 h post-dose, with no one mouse having more than 3 blood draws. Blood was collected in EDTA coated tubes. Samples were stored at −20° C. until analysis.
Quantitation of compound levels in plasma was accomplished by LC-MS/MS analysis. Standard curve and quality control samples were prepared in male CD-1 mouse plasma containing EDTA K^2+ as an anticoagulant at final concentrations ranging from 500 to 0.1 ng/mL. The plasma samples, calibration curve standards, and quality control samples were prepared in an identical method in a 96-well deep plate (1 mL) with a quenching solution (1:1 mixed acetonitrile:methanol containing the internal standard Reserpine @ 400 ng/mL). Low volume samples were supplemented with CD-1 mouse plasma. The plate was mixed on multi-tube vortexer for 1 min and centrifuged at 4000 rpm for 30 min at 4° C. (Sorvall® Super T21) before LC-MS/MS analysis. LC conditions were developed and optimized based on each compound as needed. The outlet of the column was coupled to AB Sciex 4000 QTrap Mass Spectrometer (AB Sciex, Brugg Switzerland). Detection was carried out using multiple reaction monitoring mode with positive-ion detection focusing. The pharmacokinetic parameters were derived from the plasma-time data and calculated using the standard non-compartmental method with WinNonlin (Pharsight, Mountain View, Calif.) or PK Solver (Comp. Meth. Prog. Biomed. (2010), 99, 306-314).
Values reported are the mean plasma concentration of three mice. […]

mouse TGR5 receptor = molecular target: T2, mouse TGR5 receptor (Mus musculus, UniProt Q80SS6); assay: Mouse TGR5 HTRF cAMP production assay (HEK293-EBNA cells, Cisbio cAMP HiRange kit); format: cell-based; details: HEK293-EBNA cells overexpressing mouse TGR5, HTRF cAMP assay
T2 construct: host or cells: HEK293-EBNA (293 c18, ATCC CRL10852)
T2 sequence (Q80SS6 1-329): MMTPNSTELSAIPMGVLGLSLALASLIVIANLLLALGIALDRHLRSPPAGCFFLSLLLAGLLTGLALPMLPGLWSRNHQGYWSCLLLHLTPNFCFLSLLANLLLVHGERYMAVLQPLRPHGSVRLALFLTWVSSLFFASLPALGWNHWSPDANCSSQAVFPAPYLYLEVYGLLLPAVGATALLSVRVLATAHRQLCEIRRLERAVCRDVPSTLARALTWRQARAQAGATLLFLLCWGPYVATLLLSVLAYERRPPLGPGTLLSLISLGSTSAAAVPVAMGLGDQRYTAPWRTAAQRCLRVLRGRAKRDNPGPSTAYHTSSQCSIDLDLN
Outline: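 cAMP accumulation was read by competitive HTRF after 1 h room-temperature compound treatment, with a further 1 h conjugate incubation. Cells were mouse TGR5-overexpressing HEK293-EBNA in serum-free DMEM plus 500 μM IBMX. Compounds ran as 12-point half-log series in duplicate, and EC50 values were reported.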

EC50 (human TGR5 receptor): < 100 nM
Cmax ([1]; mouse, read-out: Cmax): 16 ng/mL
EC50 (mouse TGR5 receptor): < 100 nM
Compound: N#Cc1ccc(CCNC(=O)[C@@H]2CCCN2c2cc(N3CCC(CCCNC(=O)NCCS(=O)(=O)O)CC3)nc(C(F)(F)F)n2)cc1 [Compound 119, (S)-2-(3-(3-(1-(6-(2-((4-cyanophenethyl)carbamoyl)pyrrolidin-1-yl)-2-(trifluoromethyl)pyrimidin-4-yl)piperidin-4-yl)propyl)ureido)-ethanesulfonic acid]

EC50 (human TGR5 receptor): < 100 nM
Cmax ([1]; mouse, read-out: Cmax): 59 ng/mL
EC50 (mouse TGR5 receptor): < 100 nM
Compound: O=C(CCCC1CCN(c2cc(N3CCC[C@H]3C(=O)NCCc3ccc(Cl)c(Cl)c3)nc(C(F)(F)F)n2)CC1)NCS(=O)(=O)O [Compound 136, (S)-(4-(1-(6-(2-((3,4-dichlorophenethyl)carbamoyl)pyrrolidin-1-yl)-2-(trifluoromethyl)pyrimidin-4-yl)piperidin-4-yl)butanamido)methanesulfonic acid]

EC50 (human TGR5 receptor): < 100 nM
Cmax ([1]; mouse, read-out: Cmax): 15 ng/mL
EC50 (mouse TGR5 receptor): < 100 nM
Compound: N#Cc1ccc(CCNC(=O)[C@@H]2CCCN2c2cc(N3CCC(CCNC(=O)NCS(=O)(=O)O)CC3)nc(C(F)(F)F)n2)cc1 [Compound 79, (S)-(3-(2-(1-(6-(2-((4-cyanophenethyl)carbamoyl)pyrrolidin-1-yl)-2-(trifluoromethyl)pyrimidin-4-yl)piperidin-4-yl)ethyl)ureido)methanesulfonic acid]

EC50 (human TGR5 receptor): < 100 nM
Cmax ([1]; mouse, read-out: Cmax): 35 ng/mL
EC50 (mouse TGR5 receptor): < 100 nM
Compound: O=C(NCCCC1CCN(c2cc(N3CCC[C@H]3C(=O)NCCc3ccc(C(F)(F)F)cc3)nc(C(F)(F)F)n2)CC1)NCCS(=O)(=O)O [Compound 87, (S)-2-(3-(3-(1-(2-(trifluoromethyl)-6-(2-((4-(trifluoromethyl)phenethyl)-carbamoyl)-pyrrolidin-1-yl)pyrimidin-4-yl)piperidin-4-yl)propyl)ureido)-ethanesulfonic acid]

EC50 (human TGR5 receptor): < 100 nM
Cmax ([1]; mouse, read-out: Cmax): 69 ng/mL
EC50 (mouse TGR5 receptor): < 100 nM
Compound: O=C(CCCC1CCN(c2cc(N3CCC[C@H]3C(=O)NCCc3cccc(Cl)c3Cl)nc(C(F)(F)F)n2)CC1)NCS(=O)(=O)O [Compound 138, (S)-(4-(1-(6-(2-((2,3-dichlorophenethyl)carbamoyl)pyrrolidin-1-yl)-2-(trifluoromethyl)pyrimidin-4-yl)piperidin-4-yl)butanamido)-methanesulfonic acid]

Second part, the compound before the results:

Compound: N=C(N)NCCS(=O)(=O)N1CCN(c2cc(N3CCC[C@@H](C(=O)NCCc4ccc(C(F)(F)F)cc4)C3)nc(C(F)(F)F)n2)CC1 [Compound 349, (R)-1-(6-(4-((2-guanidinoethyl)sulfonyl)piperazin-1-yl)-2-(trifluoromethyl)-pyrimidin-4-yl)-N-(4-(trifluoromethyl)phenethyl)piperidine-3-carboxamide]
EC50 (human TGR5 receptor): < 100 nM
Cmax ([1]; mouse, read-out: Cmax): 1.7 ng/mL
EC50 (mouse TGR5 receptor): < 100 nM

Compound: N#Cc1ccc(CCNC(=O)[C@@H]2CCCN2c2cc(N3CCC(COCC(=O)NCCS(=O)(=O)O)CC3)nc(C(F)(F)F)n2)cc1 [Compound 89, (S)-2-(2-((1-(6-(2-((4-cyanophenethyl)carbamoyl)pyrrolidin-1-yl)-2-(trifluoromethyl)pyrimidin-4-yl)piperidin-4-yl)methoxy)acetamido)-ethanesulfonic acid]
EC50 (human TGR5 receptor): < 100 nM
Cmax ([1]; mouse, read-out: Cmax): 2.1 ng/mL
EC50 (mouse TGR5 receptor): < 100 nM

Compound: COc1cc(C(F)(F)F)ccc1CCNC(=O)[C@@H]1CCCN(c2cc(N3CCC(CCO)CC3)nc(C(F)(F)F)n2)C1 [Compound 332, (R)-1-(6-(4-(2-hydroxyethyl)piperidin-1-yl)-2-(trifluoromethyl)pyrimidin-4-yl)-N-(2-methoxy-4-(trifluoromethyl)-phenethyl)piperidine-3-carboxamide]
EC50 (human TGR5 receptor): < 100 nM
Cmax ([1]; mouse, read-out: Cmax): 37 ng/mL
EC50 (mouse TGR5 receptor): < 100 nM

Compound: N#Cc1ccc(CCNC(=O)[C@@H]2CCN2c2cc(N3CCC(CCNS(=O)(=O)NCCC(=O)O)CC3)nc(C(F)(F)F)n2)cc1 [Compound 355]
EC50 (human TGR5 receptor): < 100 nM
Cmax [1]: 48 ng/mL
EC50 (mouse TGR5 receptor): < 100 nM

Compound: N#Cc1ccc(CCNC(=O)[C@@H]2CCN2c2cc(N3CCC(CCNc4c(NCCC(=O)O)c(=O)c4=O)CC3)nc(C(F)(F)F)n2)cc1 [Compound 301, (S)-3-((2-((2-(1-(6-(2-((4-cyanophenethyl)carbamoyl)azetidin-1-yl)-2-(trifluoromethyl)pyrimidin-4-yl)piperidin-4-yl)ethyl)amino)-3,4-dioxocyclobut-1-en-1-yl)amino)propanoic acid]
EC50 (human TGR5 receptor): < 100 nM
Cmax ([1]; mouse, read-out: Cmax): 2.6 ng/mL
EC50 (mouse TGR5 receptor): < 100 nM

Compound: C[N+](C)(C)CCC[C@H](NC(=O)CCCC1CCN(c2cc(N3CCC[C@H]3C(=O)NCCc3ccc(C#N)cc3)nc(C(F)(F)F)n2)CC1)C(=O)O [Compound 105, (S)-4-carboxy-4-(4-(1-(6-((S)-2-((4-cyanophenethyl)carbamoyl)pyrrolidin-1-yl)-2-(trifluoromethyl)pyrimidin-4-yl)piperidin-4-yl)butanamido)-N,N,N-trimethylbutan-1-aminium]
EC50 (human TGR5 receptor): < 100 nM
Cmax ([1]; mouse, read-out: Cmax): 51 ng/mL
EC50 (mouse TGR5 receptor): < 100 nM

Compound: N#Cc1ccc(CCNC(=O)[C@@H]2CCCN2c2cc(N3CCC(CCNC(=O)NCCOCCOCCOCCC(=O)O)CC3)nc(C(F)(F)F)n2)cc1 [Compound 364, (S)-1-(1-(6-(2-((4-cyanophenethyl)carbamoyl)pyrrolidin-1-yl)-2-(trifluoromethyl)pyrimidin-4-yl)piperidin-4-yl)-4-oxo-8,11,14-trioxa-3,5-diazaheptadecan-17-oic acid]
EC50 (human TGR5 receptor): < 100 nM
Cmax ([1]; mouse, read-out: Cmax): 8 ng/mL
EC50 (mouse TGR5 receptor): < 100 nM

Compound: N#Cc1ccc(CCNC(=O)[C@@H]2CCCN2c2cc(N3CCC(CCNC(=O)N[C@@H](CCCNC(=N)N)C(=O)O)CC3)nc(C(F)(F)F)n2)cc1 [Compound 83, (S)-2-(3-(2-(1-(6-((S)-2-((4-cyanophenethyl)carbamoyl)pyrrolidin-1-yl)-2-(trifluoromethyl)pyrimidin-4-yl)piperidin-4-yl)ethyl)ureido)-5-guanidinopentanoic acid]
EC50 (human TGR5 receptor): < 100 nM
Cmax ([1]; mouse, read-out: Cmax): 2.5 ng/mL
EC50 (mouse TGR5 receptor): < 100 nM

Compound: O=C(CCCC1CCN(c2cc(N3CCC[C@H]3C(=O)NCCc3ccc(C(F)(F)F)cc3)nc(C(F)(F)F)n2)CC1)NCCNc1ncnc2[nH]cnc12 [Compound 95, (S)-1-(6-(4-(4-((2-((9H-purin-6-yl)amino)ethyl)amino)-4-oxobutyl)piperidin-1-yl)-2-(trifluoromethyl)pyrimidin-4-yl)-N-(4-(trifluoromethyl)phenethyl)pyrrolidine-2-carboxamide]
EC50 (human TGR5 receptor): < 100 nM
Cmax ([1]; mouse, read-out: Cmax): 2 ng/mL
EC50 (mouse TGR5 receptor): < 100 nM
